In patent US20030232101A1, “Topical formulations of resorcinols and cannibinoids and methods of use” (Immugen Pharmaceuticals, Inc., priority 2002, published 2003):

Assays:
Assay type in all cases: cell-based
[1] = tested on: interaction of HIV gp 120 with CD4 (HeLa CD4 LTR β-gal / HL2/3 cell fusion); test: HeLa CD4 LTR β-gal/HL2/3 HIV-1 fusion assay (Experimental Example 1); settings: fusion assay
Description: This assay uses the HeLa CD4 LTR β-gal and HL2-3 cells available from the AIDS Research and Reference Reagent Repository. The fusion assay utilizes HeLa CD4 LTR β-gal cells with HL2/3 cells as a fusion partner via the interaction of HIV gp 120 with CD4. HL2/3 cells express HIV-1 Env on their cell surface and contain an HIV-1 Tat expression cassette. Upon syncytium formation and plasma membrane fusion, cytoplasmic mixing of the HL2/3 and HeLa CD4 LTR b-gal cell contents results in the transactivation of the LTR and β-Galactosidase expression is then directly related to […] cell membrane fusion. Thus, these two mechanistic assays can be used to confirm and identify a virus entry-based target of the compound. Additionally, because the attachment assay uses cell-free virus this assay can be used to show applicability to cell-free virus transmission.
Twenty-four h prior to initiation of the assay cells were trypsinized, counted and 5×10^3 cells placed in a 0.2 cm well in media without selection antibiotics. To initiate the fusion assay HeLa CD4 LTR β-gal (5×10^3 cells per 0.2 cm well) were incubated with compound for 1 h at 37° C. HL2/3 cells (5×10^3) were added to the 0.2 cm well and the incubation continued for 48 h. At 48 h the wells were washed 1 time with PBS and β-galactosidase enzyme expression determined by chemiluminescence per manufacturers instructions (Tropix Gal-screen™, Tropix, Bedford, Mass.). Compound toxicity was monitored on sister plates using MTS dye reduction.
In addition to assessing inhibition of attachment with HeLa CD4 LTR β-gal cells a virus fusion assay was perfoed using HeLa CD4 LTR β-gal and HL2/3 cells. No timed addition of compound was employed, but rather the assay was performed to verify the effects of the compounds on the HeLa CD4 LTR β-gal cells β-galactosidase expression.

[2] = tested on: HIV-1 (96USHIPS7 strain); test: HIV attachment assay in PBMCs (cell-associated p24); settings: for Comments: effect on HIV attachment / % Control / pg p24: 15 μM; for Comments: effect on HIV attachment: pretreatment 0, 2, 4, 24 h; for virus binding relative to control: pretreated for 24 h
Protocol: ELISA kits were purchased from Coulter Electronics. The assay was performed according to the manufacturer's instructions. Control curves were generated in each assay to accurately quantitate the amount of p24 antigen in each sample. For experiments using cell lysates. Fifty thousand (5×10^4) viable cells were lysed in Coulter ELISA buffer and subjected to 1 round of freeze/thawed to liberate trapped p24 and p24 detected per manufacturers instructions. HIV capsid protein (p24) was quantitated spectrophotometrically at 450 nm using a Molecular Devices Vmax plate reader using a standard curve. Final concentrations were calculated from the optical density values using the Molecular Devices Soft Max software package.
The attachment assay with PBMCs was performed as follows. Briefly, 1×10^6 PHA/IL-2 PBMCs were incubated for 0, 2, 4 and 24 hours with IMG compounds and cannabidiol in polypropylene tubes. A pre-titered amount of HIV-1 (96USHIPS7 strain, obtained from the AIDS Research and Reference Reagent Program ) was added in the presence of compound and incubated for 3 h at 37° C. After incubation the cultures were washed 3 times (400×g, 10 min, 4° C.) with media (1:25,000 dilution of input p24), the cell pellets lysed with p24 lysing buffer (Coulter) and p24 content determined by ELISA.
PBMCs pretreated with compounds for 0, 2, 4, and 24 were incubated with cell-free HIV-1 for 3 h and the excess unbound HIV removed. The assessed the amount of HIV bound to the cell was then assessed by measuring cell-associated p24 content of total cell lysates.

[3] = tested on: IIIB strain of HIV-1; test: Virus attachment assay, HeLa CD4 LTR β-gal cells (Experimental Example 2); settings: Human immunodeficiency virus 1, IIIB, HeLa, read-out: Attachment Assay IC50
Protocol: This assay detects compounds that block virus attachment using HeLa CD4 LTR β-gal cells. HeLa CD4 LTR β-gal cells were cultured with selection antibiotics. Twenty-four h prior to initiation of the assay, the cells were trypsinized, counted and plated in a 0.2 cm well in media without selection antibiotics. At 24 h media is removed and compound in media placed on the cells and incubated for 15 min at 37° C. A known titer of the IIIB strain of HIV-1 was then added to the wells and the incubation continued for 1 to 2 h. At the end of the incubation the wells were washed 2 times with media and the culture continued for 40 to 48 h. At termination of the assay, media is removed and β-galactosidase enzyme expression determined by chemiluminescence per manufacturer's instructions (Tropix Gal-screen, Bedford Mass.). Compound toxicity is monitored on a sister plate by XTT or MTS dye reduction. All determinations are performed in triplicate with serial_Log10 dilution of the test materials.

[4] = tested on: cell-to-cell fusion mediated by HIV-1 Env and CD4; test: Fusion assay, HeLa CD4 LTR β-gal and HL2/3 cells (Experimental Example 2); settings: Human immunodeficiency virus 1, HL2/3, read-out: Fusion Assay IC50
Protocol: (§1) The fusion assay assesses the ability of compounds to block cell-to-cell fusion mediated by HIV-1 Env and CD4 expressed on separate cells. This assay is sensitive to inhibitors of both the gp 120/CD4 interaction and inhibitors of the X4 coreceptor. HeLa CD4 LTR β-gal cells were plated in microtiter wells and diluted compounds are added and allowed to incubate at 37° C. for 1 hr prior to the addition of HL2/3 cells. The incubation was then continued for 40 to 48 h, after which fusion is monitored by measurement of β-galactosidase enzyme expression, detectable by chemiluminescence (Tropix Gal-screen, Tropix, Bedford, Mass.). Compound toxicity is monitored on a sister plate using XTT or MTS dye reduction. All determinations are performed in triplicate with serial_Log10 dilution of the test materials.

[5] = Compound toxicity in the fusion assay, sister plate, XTT or MTS (Example 2); settings: human, HeLa CD4 LTR β-gal cells, read-out: Fusion Assay TC50
Protocol: as §1

| Structure (SMILES) | Comments: suppression of β-galactosidase activity [1] | Comments: effect on HIV attachment [2] | % Control ([2]; time 0 h) [%] | pg p24 ([2]; time 0 h) [pg] | % Control ([2]; time 2 h) [%] | pg p24 ([2]; time 2 h) [pg] | % Control ([2]; time 4 h) [%] | pg p24 ([2]; time 4 h) [pg] | % Control ([2]; time 24 h) [%] | pg p24 ([2]; time 24 h) [pg] | virus binding relative to control [2] | inhibition of HIV cell-association ([2]; 4 h preincubation) | IC50 [3] [µM] | IC50 [4] [nM] | CC50 [5] [µM] |
| --- | --- | --- | --- | --- | --- | --- | --- | --- | --- | --- | --- | --- | --- | --- | --- |
| C=C(C)[C@@H]1CCC(C)=C[C@H]1c1c(O)cc(CCCCC)cc1O [Cannabidiol, reference compound] | Suppression of β-galactosidase | No significant effect | 82.6 | 317 | 74.5 | 286 | 90.9 | 349 | 114.3 | 439 | return to control levels of virus binding | – | – | – | – |
| COc1cc(C(C)(C)CCCC(C)C)cc(OC)c1OC [IMG507, 1-(1,1,5-Trimethylhexyl)-3,4,5-trimethoxybenzene] | – | no significant effect on virus attachment | 83.3 | 320 | 91.4 | 351 | 76.3 | 293 | 95.8 | 368 | – | – | – | – | – |
| CC(C)=CCCC1(C)CCc2c(O)cc(C(C)(C)CCCC(C)C)cc2O1 (stereo not shown) [IMG508, 3,4-Dihydro-2-methyl-2-(4-methyl-3-pentenyl)-7-(1,1,5-trimethylhexyl)-2H-1-benzopyran-5-ol] | – | No significant effect | 81.3 | 312 | 85.4 | 328 | 72.7 | 279 | 111.5 | 428 | return to control levels of virus binding | – | – | – | – |
| CC1=CCC2C(C1)c1c(O)cc(C(C)(C)CCCC(C)C)cc1OC2(C)C (stereo not shown) [IMG509, 3-Norpentyl-3-(1,1,5-trimethylhexyl)-Δ8-tetrahydrocannabinol] | Suppression of β-galactosidase | – | 83.6 | 321 | 81.8 | 314 | 61.2 | 235 | 77.3 | 297 | – | significantly inhibit HIV cell-association | 48.4 | 1210 | 18.4 |
| Cc1c(O)cc(C(C)(C)CCCC(C)C)cc1O [IMG510, 2-Methyl-5-(1,1,5-trimethylhexyl)resorcinol] | – | – | 91.1 | 350 | 85.7 | 329 | 71.4 | 274 | 88.3 | 339 | – | – | 50.8 | 1360 | > 100 |
| Cc1ccc2c(c1)-c1c(O)cc(C(C)(C)CCCC(C)C)cc1OC2(C)C [IMG511, 3-Norpentyl-3-(1,1,5-trimethylhexyl)cannabinol] | Suppression of β-galactosidase | No Significant effect | 75.5 | 290 | 85.4 | 328 | 76.6 | 294 | 91.7 | 352 | – | – | 46.3 | 920 | 20.7 |
